Reference: PMC5615938 (Toxicology Reports, 2016)
Where two headings read alike, the source gives them in different places. Blank lines part the entries; values can stand above or below the molecule they belong to.

Columns and labels:
[1] = molecular target: Silver catfish (Synodontis eupterus) major hepatic glutathione transferase (seGST); type: biochemical; settings: pH 6.5, 1 mM CDNB and 1 mM GSH
[2] = molecular target: Silver catfish (Synodontis eupterus) major hepatic glutathione transferase (seGST); test: Product and dead-end inhibition studies of seGST; type: biochemical
[3] = test system: Silver catfish (Synodontis eupterus) major hepatic glutathione transferase (seGST); test: seGST steady state kinetics, GSH-CDNB conjugation; type: biochemical; settings: for Km: 0.1-1.2 mM GSH and CDNB, one substrate varied, the other kept constant
GST = settings: cited from earlier work
[4] = test system: Silver catfish (Synodontis eupterus) major hepatic glutathione transferase (seGST); test: Viscosity dependence of seGST kcat/KM; type: biochemical; settings: viscosogen added, 25 °C

Molecule: 1-methyl glutathione [1−methylglutathione]
IC50 [1]: 16.6 ± 1.58 µM
Ki ([2]; read-out: Kis (CDNB varied), CDNB varied): 0.16 µM
Ki ([2]; read-out: Kis (GSH varied), CDNB fixed at 1.0 mM, GSH 0.1-1.0 mM): 0.09 µM

Molecule: O=C1OC(c2ccc(O)c(S(=O)(=O)O)c2)(c2ccc(O)c(S(=O)(=O)O)c2)c2c(Br)c(Br)c(Br)c(Br)c21 [Bromosulphosptlein, bromosulfophthalein]
IC50 [1]: 47.4 ± 5.67 µM

Molecule: O=[N+]([O-])c1ccc(Cl)c([N+](=O)[O-])c1 [CDNB, 1-chloro 2,4-dintrobenzene]
Km ([3]; 25 °C): 690 ± 170 µM
KIB (E.CDNB + GSH ⇌ E.CDNB.GSH) ([3]; from secondary plots, GSH-CDNB): 0.48 ± 0.02

Molecule: [Cl-].[K+] [KCl]
inhibition pattern in double reciprocal plots ([2]; with respect to GSH and with respect to CDNB): non-competitive inhibition

Molecule: [Cl][Sn]([c]1ccccc1)([c]1ccccc1)[c]1ccccc1 [Triphenytin chloride, triphenyltin chloride]
IC50 [1]: 0.05 ± 0.005 µM

The next lines start with results.

IC50 [1]: 0.01 ± 0.001 µM
Molecule: Nc1c(S(=O)(=O)O)cc(Nc2ccc(Nc3nc(Cl)nc(Nc4ccccc4S(=O)(=O)O)n3)c(S(=O)(=O)O)c2)c2c1C(=O)c1ccccc1C2=O [Cibracron Blue]

IC50 [1]: 21.3 ± 3.22 µM
Molecule: C=C(CC)C(=O)c1ccc(OCC(=O)O)c(Cl)c1Cl [Ethacrynic acid]

Km ([3]; 25 °C): 530 ± 50 µM
kcat[GSH] ([3]; 25 °C, GSH-CDNB conjugation): 44.62 ± 1.124 s⁻¹
KA (E.GSH + CDNB ⇌ E.GSH.CDNB) ([3]; from secondary plots, GSH-CDNB): 0.64 ± 0.04
KIA (E.GSH) ([3]; from secondary plots, GSH-CDNB): 0.14 ± 0.01
Molecule: N[C@@H](CCC(=O)N[C@@H](CS)C(=O)NCC(=O)O)C(=O)O [GSH, Reduced glutathione]
pKa of GSH (GST; before lowering by GST): 9.0
pKa of the bound GSH (GST; bound to GST): about 6.5

IC50 [1]: 5 ± 0.1 µM
Molecule: C=CC1=C(C)c2cc3[n-]c(cc4[n-]c(cc5nc(cc1n2)C(C)=C5C=C)c(C)c4CCC(=O)O)c(CCC(=O)O)c3C.[Fe+2] [Hematin]

catalytic efficiency indicated by the exponential value [4]: 23%
exponential value of (kcat/KM)^0/(kcat/KM) versus relative viscosity ([4]; 0.1 M potassium phosphate buffer pH 6.5): 0.227
Molecule: OCC(O)CO [glycerol, Glycerol]

IC50 [1]: 17.6 ± 1.3 µM
Molecule: CCCCCCSC[C@H](NC(=O)CC[C@H](N)C(=O)O)C(=O)NCC(=O)O [s-hexylglutathione]
